# In US8519136B2, “Aminopyridine derivatives having aurora a selective inhibitory action” (MSD K.K., priority 2008, dated 2013):
# Where a name gives a salt, the structure may show the parent alone.
# Tests used:
# [1] = target: T1, GST-tagged human Aurora B(AurB)/His-tagged human INCENP complex proteins (Homo sapiens, UniProt Q96GD4); experiment: Aurora B inhibitory activity (Method A, IMAP kit); assay type: biochemical; settings: 40 μM ATP, 25° C., 45 minutes
# T1 construct: GST; purchased Carna Biosciences, Inc
# Protocol: An assay development kit for IMAP (registered trademark) (Aurora B), purchased from Carna Biosciences, Inc., was used for phosphorylation reaction, and the phosphorylation of a substrate was detected using the IMAP technology. The assay development kit used is comprised of an assay buffer, GST-tagged human Aurora B(AurB)/His-tagged human INCENP complex proteins (amino acid sequence: 803-916, AAU04398.1), and an ATP/substrate solution. Using the same, the phosphorylation reaction was conducted in accordance with a partially revised protocol attached to the kit, and then the phosphorylation of the substrate was detected using the IMAP technology.
# For the phosphorylation reaction, 384 well plate was used, and the reaction volume was 10 μl/well. The composition of the reaction buffer (assay buffer) is comprised of 20 mM of HEPES buffer (pH 7.4), 0.01% Tween-20, and 2 mM of dithiothreitol (DTT). Thereto, AurB/INCENP complex protein, 100 nM of the substrate, and 40 μM of ATP, and 1 mM of magnesium salt were added, and then the reaction was conducted at 25° C. for 45 minutes. Thereafter, in order to terminate and detect the reaction, 30 μl of the IMAP (registered trademark) binding reagent (IMAP Progressive Binding Reagent, R7284) that had been diluted (1:400) in the 1×IMAP binding buffer A (IMAP Progressive Binding Buffer A, 5× stock, R7282) was added to each well. The solution stood still for 60 minutes in the dark, and then fluorescence polarization was measured using a high-end microplate reader (excitation wavelength: 485 nm; emission wavelength: 520 nm).
# (§1) The compound to be tested was added to the reaction system such that a dilution series of the compound in DMSO was prepared, and then 0.5 μL of this solution was added for the testing to each well. Each control well was provided by adding 0.5 μL of DMSO to the well in place of the DMSO solution containing the compound to be tested.
# [2] = target: T2, His-tagged human Aurora A (Homo sapiens, UniProt O14965); experiment: Aurora A inhibitory activity (IMAP fluorescence polarization); assay type: biochemical; settings: 20 μM ATP, 30° C., 120 minutes
# T2 construct: His (N); made in house; host or cells: Escherichia coli BL21-CodonPlus(DE3)-RIL
# T2 sequence (O14965 1-403): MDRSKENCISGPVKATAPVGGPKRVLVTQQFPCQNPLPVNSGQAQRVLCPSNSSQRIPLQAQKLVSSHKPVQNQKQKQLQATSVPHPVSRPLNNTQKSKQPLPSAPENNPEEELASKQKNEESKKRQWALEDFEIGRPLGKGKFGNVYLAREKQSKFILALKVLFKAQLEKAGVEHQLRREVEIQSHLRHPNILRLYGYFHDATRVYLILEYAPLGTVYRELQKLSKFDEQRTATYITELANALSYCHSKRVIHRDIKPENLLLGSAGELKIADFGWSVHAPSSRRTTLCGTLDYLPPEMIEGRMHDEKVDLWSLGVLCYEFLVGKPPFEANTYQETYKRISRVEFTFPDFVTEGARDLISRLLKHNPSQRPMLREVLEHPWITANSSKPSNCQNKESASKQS
# Text: cDNA of N-terminal His-tagged human Aurora A was integrated into an expression vector, which was then highly expressed in Escherichia coli BL21-CodonPlus(DE3)-RIL cells. The Escherichia coli was harvested and lysed, and then the His-tagged human Aurora A protein was applied onto a nickel chelate column and eluted from the column with imidazole. The active fractions were desalted with a desalting column to give a purified enzyme.
# For measurement of the activity of Aurora A, the substrate used was a synthetic peptide (5-FAM (5-carboxyfluorescein)-γ-aminobutyric acid-Ala-Leu-Arg-Arg-Ala-Ser-Leu-Gly-NH2) (SEQ.ID.NO.: 1), which was purchased from Toray Research Center, Inc.
# For the phosphorylation reaction, the method by Upstate, Inc. [Kinase Profiler™ Assay Protocols] was referred to, and phosphorylation of the substrate was detected using IMAP® technology (Molecular Devices, Co. Ltd.) (Gaudet E W. et. al, J. Biomol. Screen, 8, 164-175 (2003)). Concretely, the phosphorylation reaction and the detection were carried out as follows:
# The phosphorylation reaction was conducted using 384 well plate, and the reaction volume was 10 μl/well. The reaction buffer is comprised of 50 mM Tris-chloride buffer (pH 7.4), 15 mM magnesium acetate, and 0.2 mM ethylenediamine-N,N,N′,N′-tetraacetic acid (EDTA). Thereto, the purified Aurora A protein, 100 nM of the peptide substrate, and 20 μM of adenosine 5′-triphosphate (ATP) were added, and then the reaction was carried out at 30° C. for 120 minutes.
# Thereafter, in order to terminate and detect the reaction, 30 μl of the IMAP (registered trademark) binding reagent (IMAP Progressive Binding Reagent, R7284) that had been diluted (1:400) in the 1×IMAP binding buffer A (IMAP Progressive Binding Buffer A, 5× stock, R7282) was added to each well. The solution stood still for 60 minutes in the dark, and then fluorescence polarization was measured using a high-end microplate reader (excitation wavelength: 485 nm; emission wavelength: 520 nm).
# as §1, with “in dimethylsulfoxide (DMSO)” for “in DMSO”
# [3] = system: Human cervical cancer cells (HeLa S3); experiment: Effect by combined use of drugs in cells (with docetaxel), WST-8 method; assay type: cell-based; settings: docetaxel 0.3 nM alone, HeLa S3, three days, DMSO = 0%
# Protocol: Fetal calf serum (FCS) was purchased from Moregate Biotech, DMEM medium from Invitrogen Corp., docetaxel (tradename: Taxere) from Sigma-Aldrich, Inc., and WST-8 from Kishida Chemical Co., Ltd.
# Human cervical cancer cells (HeLa S3) were obtained from the American Type Culture Collection (ATCC).
# Cells were suspended in a DMEM medium containing 10% FCS, and the cell suspension was dispensed to two 96-well plastic plates at a rate of 750 cells/100 microliters per well. The plates were incubated overnight in 5% CO2-95% air at 37° C. A drug was subjected to graded dilution in dimethylsulfoxide and further diluted with DMSO or with a DMEM medium containing 10% FCS and also containing 0.6 nM docetaxel. Then, the dilutions were each dispensed to one of the plates on which cells had been disseminated, at a rate of 100 microliters per well. The final concentration of docetaxel at this stage was 0.3 nM. Also, the concentrations in the case of sole administration of the compound according to the invention were 0.003, 0.01, 0.03, 0.1, 0.3, 1, 3 and 10 μM. The plates were incubated for further three days in 5% CO2-95% air at 37° C. Cell growth after incubation was measured by the WST-8 method (H. Tominaga, et al., Anal. Commun., 36, 47-50 (1999)). Here, the WST-8 method refers to a method in which 20 microliters of a WST-8 reagent solution is added to each well, incubation is conducted at 37° C. for 60 minutes, the plate is stirred, and the amount of formazan produced is measured by a colorimetric method to determine the inhibitory rate of the drug. The growth inhibitory effects of docetaxel and of the compound according to the invention were determined, with the value obtained in sole treatment of DMSO being defined as 0%.
# T1 sequence (Q96GD4 whole entry): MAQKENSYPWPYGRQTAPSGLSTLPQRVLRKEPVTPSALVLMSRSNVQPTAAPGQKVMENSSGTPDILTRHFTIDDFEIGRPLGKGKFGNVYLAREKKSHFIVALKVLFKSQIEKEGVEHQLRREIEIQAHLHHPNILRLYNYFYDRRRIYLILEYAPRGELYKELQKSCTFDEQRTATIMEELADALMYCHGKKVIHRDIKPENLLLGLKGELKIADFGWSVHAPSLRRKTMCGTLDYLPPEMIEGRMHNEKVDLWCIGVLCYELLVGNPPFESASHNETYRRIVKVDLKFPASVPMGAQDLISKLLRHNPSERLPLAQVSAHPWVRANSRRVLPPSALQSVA
# T1 sequence (Q9NQS7 803-916 partner limits assumed): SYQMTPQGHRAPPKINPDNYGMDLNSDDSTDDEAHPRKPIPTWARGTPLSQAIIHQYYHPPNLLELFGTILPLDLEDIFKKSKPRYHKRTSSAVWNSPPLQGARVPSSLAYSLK
Structure (SMILES),IC50 [1],IC50 [2],"inhibition at 0.0003 µM ([3]; Homo sapiens, HeLa S3, 72 h, read-out: Cell growth inhibitory effect by sole administration of docetaxel (0.3 nM) (%))",Cell growth inhibitory effect by sole administration of docetaxel (0.3 nM) (%) [3]
"Cc1cc(Nc2cc[nH]n2)nc(CC2CCN(C(=O)c3cccc(Cl)c3F)CC2)n1 [Example 3, 2-((1-(3-chloro-2-fluorobenzoyl)piperidin-4-yl)methyl)-6-methyl-N-1H-pyrazol-3-ylpyrimidin-4-amine trifluoroacetate]",400 nM,1.6 nM,–,–
"CCOC(=O)C1(Cc2cccc(Nc3cc[nH]n3)n2)CCN(C(=O)c2cccc(Cl)c2F)CC1 [Example 4, ethyl 1-(3-chloro-2-fluorobenzoyl)-4-((6-(1H-pyrazol-3-ylamino)pyridin-2-yl)methyl)piperidine-4-carboxylate]",> 1000 nM,1.14 nM,–,–
"CCOC(=O)C1(Cc2cccc(Nc3cc[nH]n3)n2)CCN(C(=O)c2cccc(C(F)(F)F)c2F)CC1 [Example 5, ethyl 1-(2-fluoro-3-(trifluoromethyl)benzoyl)-4-((6-(1H-pyrazol-3-ylamino)pyridin-2-yl)methyl)piperidine-4-carboxylate]",555 nM,0.63 nM,–,–
"NC(=O)C1(Cc2cccc(Nc3cc[nH]n3)n2)CCN(C(=O)c2cccc(Cl)c2F)CC1 [Example 6, 1-(3-chloro-2-fluorobenzoyl)-4-((6-(1H-pyrazol-3-ylamino)pyridin-2-yl)methyl)piperidine-4-carboxamide]",> 1000 nM,1.57 nM,–,–
"NC(=O)C1(Cc2cccc(Nc3cc[nH]n3)n2)CCN(C(=O)c2cccc(C(F)(F)F)c2F)CC1 [Example 7, 1-(2-fluoro-3-(trifluoromethyl)benzoyl)-4-((6-(1H-pyrazol-3-ylamino)pyridin-2-yl)methyl)piperidine-4-carboxamide]",135 nM,0.61 nM,–,–
"CONC(=O)C1(Cc2cccc(Nc3cc[nH]n3)n2)CCN(C(=O)c2cccc(C(F)(F)F)c2F)CC1 [Example 8, 1-(2-fluoro-3-(trifluoromethyl)benzoyl)-N-methoxy-4-((6-(1H-pyrazol-3-ylamino)pyridin-2-yl)methyl)piperidine-4-carboxamide]",555 nM,0.79 nM,–,–
"O=C(c1cccc(F)c1F)N1CCC(Cc2cccc(Nc3cc[nH]n3)n2)(c2n[nH]c(=O)o2)CC1 [Example 11, 5-(1-(2,3-difluorobenzoyl)-4-((6-(1H-pyrazol-3-ylamino)pyridin-2-yl)methyl)piperidin-4-yl)-1,3,4-oxadiazol-2(3H)-one trifluoroacetate]",236 nM,0.26 nM,–,–
"O=c1[nH]nc(C2(Cc3cccc(Nc4cc[nH]n4)n3)CCN(S(=O)(=O)c3cccc(Cl)c3Cl)CC2)o1 [Example 13, 5-(1((2,3-dichlorophenyl)sulfonyl)-4((6-(1H-pyrazol-3-ylamino)pyridin-2-yl)methyl)piperidin-4-yl)-1,3,4-oxadiazol-2(3H)-one trifluoroacetate]",609 nM,2.55 nM,–,–
"Cc1cc(Nc2cccc(CC3(c4n[nH]c(=O)o4)CCN(C(=O)c4cccc(Cl)c4F)CC3)n2)n[nH]1 [Example 15, 5-(1-(3-chloro-2-fluorobenzoyl)-4-((6-((5-methyl-1H-pyrazol-3-yl)amino)pyridin-2-yl)methyl)piperidin-4-yl)-1,3,4-oxadiazol-2(3H)-one]",77.5 nM,0.25 nM,–,–
"Cc1cc(Nc2cccc(CC3(c4n[nH]c(=O)o4)CCN(C(=O)c4cccc(F)c4F)CC3)n2)n[nH]1 [Example 16, 5-(1-(2,3-difluorobenzoyl)-4-((6-((5-methyl-1H-pyrazol-3-yl)amino)pyridin-2-yl)methyl)piperidin-4-yl)-1,3,4-oxadiazol-2(3H)-one]",157 nM,0.41 nM,–,–
"Cc1cc(Nc2cc[nH]n2)nc(CC2(C(N)=O)CCN(C(=O)c3cccc(Cl)c3F)CC2)n1 [Example 18, 1-(3-chloro-2-fluorobenzoyl)-4-((4-methyl-6-(1H-pyrazol-3-ylamino)pyrimidin-2-yl)methyl)piperidine-4-carboxamide trifluoroacetate]",> 1000 nM,1.23 nM,–,–
"CC(=O)O[C@@]12CO[C@@H]1C[C@H](O)[C@@]1(C)C(=O)[C@H](O)C3=C(C)[C@@H](OC(=O)[C@H](O)[C@@H](NC(=O)OC(C)(C)C)c4ccccc4)C[C@@](O)([C@@H](OC(=O)c4ccccc4)[C@H]21)C3(C)C [docetaxel, reference compound]",–,–,49.6%,51.6%
